Assays:
[1] = Inhibition of human ABCB1 expressed in KBV1 cells assessed as potentiation of vincristine-induced cytotoxicity by measuring vincristine IC50 at 1000 nM after 72 hrs by MTT assay (Rvb = 277.68 +/- 56.61 nM)
[2] = Inhibition of human ABCB1 expressed in NCI-ADR-RES cells assessed as potentiation of vincristine-induced cytotoxicity by measuring vincristine IC50 at 1000 nM after 72 hrs by MTT assay (Rvb = 3714.80 +/- 383.58 nM)
[3] = Inhibition of human ABCB1 expressed in NCI-ADR-RES cells assessed as potentiation of doxorubicin-induced cytotoxicity by measuring doxorubicin IC50 at 1000 nM after 72 hrs by MTT assay (Rvb = 5.54 +/- 0.60 uM)
[4] = Inhibition of human ABCB1 transfected in HEK293 cells assessed as potentiation of doxorubicin-induced cytotoxicity by measuring doxorubicin IC50 at 1000 nM after 72 hrs by CCK8 assay (Rvb = 504.65 +/- 44.94 nM)
[5] = Inhibition of human ABCB1 expressed in KBV1 cells assessed as potentiation of doxorubicin-induced cytotoxicity by measuring doxorubicin IC50 at 1000 nM after 72 hrs by MTT assay (Rvb = 5.07 +/- 0.19 uM)
[6] = Inhibition of human ABCB1 expressed in NCI-ADR-RES cells assessed as potentiation of colchicine-induced cytotoxicity by measuring colchicine IC50 at 1000 nM after 72 hrs by MTT assay (Rvb = 1607.50 +/- 497.42 nM)
[7] = Inhibition of human ABCB1 expressed in KBV1 cells assessed as potentiation of doxorubicin-induced cytotoxicity by measuring doxorubicin IC50 at 100 nM after 72 hrs by MTT assay (Rvb = 5.07 +/- 0.19 uM)
[8] = Inhibition of human ABCB1 expressed in NCI-ADR-RES cells assessed as potentiation of vincristine-induced cytotoxicity by measuring vincristine IC50 at 500 nM after 72 hrs by MTT assay (Rvb = 3714.80 +/- 383.58 nM)
[9] = Inhibition of human ABCB1 expressed in KBV1 cells assessed as potentiation of colchicine-induced cytotoxicity by measuring colchicine IC50 at 500 nM after 72 hrs by MTT assay (Rvb = 487.57 +/- 30.54 nM)
[10] = Inhibition of human ABCB1 expressed in KBV1 cells assessed as potentiation of vincristine-induced cytotoxicity by measuring vincristine IC50 at 100 nM after 72 hrs by MTT assay (Rvb = 277.68 +/- 56.61 nM)
[11] = Inhibition of human ABCB1 expressed in KBV1 cells assessed as potentiation of colchicine-induced cytotoxicity by measuring colchicine IC50 at 100 nM after 72 hrs by MTT assay (Rvb = 487.57 +/- 30.54 nM)
[12] = Inhibition of human ABCB1 expressed in NCI-ADR-RES cells assessed as potentiation of colchicine-induced cytotoxicity by measuring colchicine IC50 at 100 nM after 72 hrs by MTT assay (Rvb = 1607.50 +/- 497.42 nM)
[13] = Inhibition of human ABCB1 expressed in KBV1 cells assessed as potentiation of vincristine-induced cytotoxicity by measuring vincristine IC50 at 50 nM after 72 hrs by MTT assay (Rvb = 277.68 +/- 56.61 nM)
[14] = Inhibition of human ABCB1 expressed in NCI-ADR-RES cells assessed as potentiation of vincristine-induced cytotoxicity by measuring vincristine IC50 at 200 nM after 72 hrs by MTT assay (Rvb = 3714.80 +/- 383.58 nM)
[15] = Inhibition of human ABCB1 expressed in NCI-ADR-RES cells assessed as potentiation of colchicine-induced cytotoxicity by measuring colchicine IC50 at 500 nM after 72 hrs by MTT assay (Rvb = 1607.50 +/- 497.42 nM)
[16] = Inhibition of human ABCB1 expressed in NCI-ADR-RES cells assessed as potentiation of vincristine-induced cytotoxicity by measuring vincristine IC50 at 100 nM after 72 hrs by MTT assay (Rvb = 3714.80 +/- 383.58 nM)
[17] = Inhibition of human ABCB1 expressed in NCI-ADR-RES cells assessed as potentiation of doxorubicin-induced cytotoxicity by measuring doxorubicin IC50 at 100 nM after 72 hrs by MTT assay (Rvb = 5.54 +/- 0.60 uM)
[18] = Inhibition of human ABCB1 expressed in KBV1 cells assessed as potentiation of doxorubicin-induced cytotoxicity by measuring doxorubicin IC50 at 50 nM after 72 hrs by MTT assay (Rvb = 5.07 +/- 0.19 uM)
[19] = Inhibition of human ABCB1 expressed in NCI-ADR-RES cells assessed as potentiation of colchicine-induced cytotoxicity by measuring colchicine IC50 at 200 nM after 72 hrs by MTT assay (Rvb = 1607.50 +/- 497.42 nM)
[20] = Inhibition of human ABCB1 expressed in NCI-ADR-RES cells assessed as potentiation of vincristine-induced cytotoxicity by measuring vincristine IC50 at 50 nM after 72 hrs by MTT assay (Rvb = 3714.80 +/- 383.58 nM)
[21] = Inhibition of human ABCB1 expressed in NCI-ADR-RES cells assessed as potentiation of doxorubicin-induced cytotoxicity by measuring doxorubicin IC50 at 500 nM after 72 hrs by MTT assay (Rvb = 5.54 +/- 0.60 uM)
[22] = Inhibition of human ABCB1 expressed in KBV1 cells assessed as potentiation of doxorubicin-induced cytotoxicity by measuring doxorubicin IC50 at 500 nM after 72 hrs by MTT assay (Rvb = 5.07 +/- 0.19 uM)
[23] = Inhibition of human ABCB1 expressed in KBV1 cells assessed as potentiation of colchicine-induced cytotoxicity by measuring colchicine IC50 at 200 nM after 72 hrs by MTT assay (Rvb = 487.57 +/- 30.54 nM)
[24] = Inhibition of human ABCB1 expressed in NCI-ADR-RES cells assessed as potentiation of doxorubicin-induced cytotoxicity by measuring doxorubicin IC50 at 200 nM after 72 hrs by MTT assay (Rvb = 5.54 +/- 0.60 uM)
[25] = Inhibition of human ABCC1 transfected in HEK293 cells assessed as potentiation of etoposide-induced cytotoxicity by measuring etoposide IC50 at 500 nM after 72 hrs by CCK8 assay (Rvb = 38.54 +/- 5.62 nM)
[26] = Inhibition of human ABCB1 expressed in NCI-ADR-RES cells assessed as potentiation of colchicine-induced cytotoxicity by measuring colchicine IC50 at 50 nM after 72 hrs by MTT assay (Rvb = 1607.50 +/- 497.42 nM)
[27] = Inhibition of human ABCB1 expressed in KBV1 cells assessed as potentiation of vincristine-induced cytotoxicity by measuring vincristine IC50 at 500 nM after 72 hrs by MTT assay (Rvb = 277.68 +/- 56.61 nM)
[28] = Inhibition of human ABCB1 transfected in HEK293 cells assessed as potentiation of doxorubicin-induced cytotoxicity by measuring doxorubicin IC50 at 200 nM after 72 hrs by CCK8 assay (Rvb = 504.65 +/- 44.94 nM)
[29] = Inhibition of human ABCB1 expressed in NCI-ADR-RES cells assessed as potentiation of doxorubicin-induced cytotoxicity by measuring doxorubicin IC50 at 50 nM after 72 hrs by MTT assay (Rvb = 5.54 +/- 0.60 uM)
[30] = Inhibition of human ABCB1 expressed in KBV1 cells assessed as potentiation of vincristine-induced cytotoxicity by measuring vincristine IC50 at 200 nM after 72 hrs by MTT assay (Rvb = 277.68 +/- 56.61 nM)
[31] = Inhibition of human ABCB1 transfected in HEK293 cells assessed as potentiation of doxorubicin-induced cytotoxicity by measuring doxorubicin IC50 at 100 nM after 72 hrs by CCK8 assay (Rvb = 504.65 +/- 44.94 nM)
[32] = Inhibition of human ABCB1 transfected in HEK293 cells assessed as potentiation of doxorubicin-induced cytotoxicity by measuring doxorubicin IC50 at 50 nM after 72 hrs by CCK8 assay (Rvb = 504.65 +/- 44.94 nM)
[33] = Inhibition of human ABCB1 expressed in KBV1 cells assessed as potentiation of doxorubicin-induced cytotoxicity by measuring doxorubicin IC50 at 200 nM after 72 hrs by MTT assay (Rvb = 5.07 +/- 0.19 uM)

COc1cc2c(cc1OC)CN(CCc1ccc(NC(=O)c3cc(OC)c(OC)cc3NC(=O)c3cnc4ccccc4c3)cc1)CC2
IC50 [1]: 0.66 nM | IC50 [2]: 19 nM | IC50 [3]: 240 nM | IC50 [4]: 25 nM | IC50 [5]: 70 nM | IC50 [6]: 25 nM

COc1ccc2cc1Oc1ccc(cc1)C[C@H]1c3cc(c(OC)cc3CCN1C)Oc1c(OC)c(OC)c(OC)c3c1[C@H](C2)N(C)CC3 [CHEBI:5677]
IC50 [7]: 700 nM | IC50 [8]: 115 nM | IC50 [9]: 32 nM | IC50 [10]: 100 nM | IC50 [11]: 188 nM | IC50 [12]: 571 nM | IC50 [13]: 205 nM | IC50 [14]: 970 nM | IC50 [15]: 79 nM | IC50 [16]: 2660 nM | IC50 [17]: 1310 nM | IC50 [18]: 1420 nM | IC50 [19]: 224 nM | IC50 [20]: 3.22 µM | IC50 [21]: 230 nM | IC50 [22]: 100 nM | IC50 [23]: 118 nM | IC50 [24]: 550 nM | IC50 [25]: 38.3 µM | IC50 [26]: 1010 nM | IC50 [27]: 1.6 nM | IC50 [28]: 44 nM | IC50 [29]: 2810 nM | IC50 [30]: 21 nM | IC50 [31]: 76 nM | IC50 [32]: 109 nM | IC50 [33]: 280 nM

Source: BindingDB's records for doi:10.1021/acs.jnatprod.6b00597 (Chang Gung Memorial Hospital, 2016)
